Results from patent publication US5540861A (priority 1994, dated 1996).

What was measured:
[1] = in vivo
[2] = in vivo; details: po

| SMILES | ORAL LD50 [1] | LD50 [2] |
| --- | --- | --- |
| [Cl-].[Na+] [Sodium Chloride] | 3,000 mg/kg |  |
| CCO [Ethanol] | 7,080 mg/kg |  |
| CCCCCCCCCc1cc([N+](=O)[O-])c(O)c([N+](=O)[O-])c1 [DNNP (C9), 2,6dinitro-4-nonylphenol] |  | 50 mg/kg |
| CCCCc1cc([N+](=O)[O-])c(O)c([N+](=O)[O-])c1 [DNBP (C4), 2,6dinitro-4-butylphenol] |  | 30 mg/kg |
